Laboratory results published in patent US20180360810A1, “NUPHARIDINE COMPOUNDS AND DERIVATIVES THEREOF FOR THE TREATMENT OF CYSTEINE PROTEASE RELATED DISEASES” (B. G. NEGEV TECHNOLOGIES AND APPLICATIONS LTD., AT …, priority 2015, published 2018).

How the values were obtained:
Format in all cases: biochemical
[1] = target: T1, Human rCathepsin D (Homo sapiens, UniProt P07339); test: Cathepsin D fluorometric inhibition assay; settings: substrate ES001; pH 3.5; molarity calculated on assumed molecular weight of 526 daltons; read-out: IC50 (Nanomolar)
T1 construct: purchased
Description: (§1) Inhibition assays were performed in triplicates using 96 well plates transparent for Calpain, Trypsin, Papain, Cathepsin L and Cathepsin B (167008; Nunc, Roskilde, Denmark), or black for Cathepsin S, Cathepsin D and Insulyzin (ide) (Greiner 96 Polystyrol GRE96fb) according to manufacturers' instructions. Briefly, reaction mixture of 100 μl contained: 45 μl of enzyme in assay buffer, 5 μl of inhibitors diluted in DMSO. 50 μl substrate prepared in assay buffer according to manufacturers' instructions. The inhibitor was serially diluted in DMSO to concentrations from 0.0075 μg/μL to 0.0000075 μg/μL. 5 μl DMSO was added to control sample. Cathepsin substrate mix was added last just before starting the fluorometric measurement. Data was collected for 1.5 h at 60 sec intervals. Molarity of inhibitors were calculated based on assumed molecular weight of 526 daltons as a reference value for comparative evaluations.

[2] = tested on: Calpain; test: Calpain inhibition assay, Casein FITC; settings: substrate Casein FITC; 0.3M potassium chloride, 0.1 mM EDTA, 3 mM DTT pH 6.5, 2 mM CaCl2
Description: as §1

[3] = tested on: Trypsin; test: Trypsin inhibition assay, Casein FITC; settings: substrate Casein FITC; 0.3M potassium chloride, 0.1 mM EDTA, 3 mM DTT pH 6.5
Description: as §1
The specificity of the reaction was tested by treatment of trypsin, a serine protease with the above mentioned compounds and no inhibitory activity was found (as shown in FIG. 2).

[4] = target: T2, Human Cathepsin B (Homo sapiens, UniProt P07858); test: Cathepsin B inhibition assay, Casein FITC; settings: substrate Casein FITC; pH 6.5; molarity calculated on assumed molecular weight of 526 daltons; read-out: IC50 (Nanomolar)
T2 construct: purchased
Description: as §1

[5] = target: T3, Human Cathepsin L (Homo sapiens, UniProt P07711); test: Cathepsin L fluorometric inhibition assay; settings: substrate Ac-FR-AFC; CTSL Assay Buffer; molarity calculated on assumed molecular weight of 526 daltons; read-out: IC50 (Nanomolar)
T3 construct: purchased
Description: as §1

[6] = target: T4, Human Insulyzin (ide) (Homo sapiens, UniProt P14735); test: Insulyzin (ide) fluorometric inhibition assay; settings: substrate ES005; pH 7.5; molarity calculated on assumed molecular weight of 526 daltons; read-out: IC50 (Nanomolar)
T4 construct: purchased
T4 sequence (P14735 1-1019): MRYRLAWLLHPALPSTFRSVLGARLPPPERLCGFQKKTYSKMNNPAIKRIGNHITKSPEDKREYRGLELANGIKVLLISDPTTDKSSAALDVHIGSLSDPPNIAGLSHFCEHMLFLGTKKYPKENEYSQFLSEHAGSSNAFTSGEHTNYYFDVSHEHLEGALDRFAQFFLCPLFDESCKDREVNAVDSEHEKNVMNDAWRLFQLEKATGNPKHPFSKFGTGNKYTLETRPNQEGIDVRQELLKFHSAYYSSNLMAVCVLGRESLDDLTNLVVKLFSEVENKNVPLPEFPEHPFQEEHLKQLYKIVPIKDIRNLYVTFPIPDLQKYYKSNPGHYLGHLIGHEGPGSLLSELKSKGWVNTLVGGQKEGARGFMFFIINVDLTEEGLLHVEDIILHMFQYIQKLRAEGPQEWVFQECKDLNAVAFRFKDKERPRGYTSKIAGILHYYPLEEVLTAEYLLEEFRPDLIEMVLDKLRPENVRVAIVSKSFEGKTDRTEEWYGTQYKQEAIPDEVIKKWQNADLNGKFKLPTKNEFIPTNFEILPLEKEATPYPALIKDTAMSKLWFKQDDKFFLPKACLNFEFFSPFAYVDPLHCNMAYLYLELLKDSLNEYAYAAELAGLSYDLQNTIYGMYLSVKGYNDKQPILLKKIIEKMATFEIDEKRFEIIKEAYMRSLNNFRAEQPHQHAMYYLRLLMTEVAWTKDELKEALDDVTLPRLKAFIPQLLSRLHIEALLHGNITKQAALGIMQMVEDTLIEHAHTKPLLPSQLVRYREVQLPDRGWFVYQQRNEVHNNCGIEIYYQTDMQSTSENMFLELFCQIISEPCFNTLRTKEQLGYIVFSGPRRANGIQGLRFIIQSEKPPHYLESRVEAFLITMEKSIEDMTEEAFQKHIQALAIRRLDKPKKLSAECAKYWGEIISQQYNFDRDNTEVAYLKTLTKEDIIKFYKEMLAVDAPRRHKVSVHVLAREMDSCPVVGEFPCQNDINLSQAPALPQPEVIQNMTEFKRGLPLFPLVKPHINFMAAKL
Description: as §1

[7] = target: T5, Human Cathepsin S (Homo sapiens, UniProt P25774); test: Cathepsin S fluorometric inhibition assay; settings: substrate ES002; pH 4.5; molarity calculated on assumed molecular weight of 526 daltons; read-out: IC50 (Nanomolar)
T5 construct: purchased
Description: as §1

[8] = target: T6, papain (Carica papaya, UniProt P00784); test: Protease Fluorescent Detection Kit, inhibition of papain activity; settings: FITC-labeled casein substrate; 10 μg papain in 50 μL; various concentrations of inhibitor
T6 sequence (P00784 134-345): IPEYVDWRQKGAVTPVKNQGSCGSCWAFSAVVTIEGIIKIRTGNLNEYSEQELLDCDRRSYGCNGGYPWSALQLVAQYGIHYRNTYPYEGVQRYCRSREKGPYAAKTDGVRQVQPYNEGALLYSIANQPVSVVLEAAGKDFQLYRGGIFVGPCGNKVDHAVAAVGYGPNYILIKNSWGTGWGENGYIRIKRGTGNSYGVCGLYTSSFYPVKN
Description: The Protease Fluorescent Detection Kit of Sigma Aldrich was used for measurement of protease activity using fluorometry. In exemplary embodiments, the method is based on the proteolytic hydrolysis of a proprietary formulation of a FITC-labeled casein substrate. The reaction mixture contained in a final volume of 50 μL, 10 μg papain and various concentrations of the candidate inhibitor.

T1 sequence (P07339 65-412): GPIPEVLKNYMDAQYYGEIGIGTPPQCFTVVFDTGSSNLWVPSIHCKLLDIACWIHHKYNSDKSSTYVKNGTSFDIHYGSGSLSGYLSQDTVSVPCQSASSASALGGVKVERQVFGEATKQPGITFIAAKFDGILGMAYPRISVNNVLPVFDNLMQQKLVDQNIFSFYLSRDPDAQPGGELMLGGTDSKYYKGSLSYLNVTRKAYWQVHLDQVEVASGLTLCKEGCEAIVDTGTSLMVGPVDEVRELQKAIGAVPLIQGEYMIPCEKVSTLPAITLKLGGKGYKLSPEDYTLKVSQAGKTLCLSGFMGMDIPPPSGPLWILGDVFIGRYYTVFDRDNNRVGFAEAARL
T3 sequence (P07711 114-333): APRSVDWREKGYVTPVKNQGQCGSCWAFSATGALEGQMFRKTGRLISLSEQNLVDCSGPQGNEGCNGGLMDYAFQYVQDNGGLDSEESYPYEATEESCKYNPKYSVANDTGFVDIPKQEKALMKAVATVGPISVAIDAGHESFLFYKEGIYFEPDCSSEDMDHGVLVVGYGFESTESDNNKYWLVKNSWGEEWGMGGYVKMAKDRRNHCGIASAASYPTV
T5 sequence (P25774 115-331): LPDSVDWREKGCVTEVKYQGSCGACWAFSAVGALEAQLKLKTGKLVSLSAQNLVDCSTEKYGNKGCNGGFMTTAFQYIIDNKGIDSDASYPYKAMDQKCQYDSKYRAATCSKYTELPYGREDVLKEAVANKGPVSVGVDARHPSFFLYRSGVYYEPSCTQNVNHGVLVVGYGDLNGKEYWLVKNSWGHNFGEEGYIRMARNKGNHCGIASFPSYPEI

In the case of “6 6′dihydroxybinupharidine [Nup-3 sigma]”, the IC50 [1] is reported as 0.07 nM, the “IC50 (Microgram/ml / Nanomolar)” value [2] is reported as “no inhibition” and the “IC50 (Microgram/ml / Nanomolar)” value [3] is reported as “no inhibition”. It also gave an IC50 [4] of 21.8 nM, an IC50 [5] of 0.266 nM and an IC50 [6] of 0.33 nM. The IC50 [7] was 0.08 nM.
6 hydroxybinupharidine [Nup-4 sigma] showed an IC50 [1] of 0.32 nM, an IC50 [4] of 29.4 nM and an IC50 [5] of 0.056 nM. The IC50 [6] was 0.85 nM.
In the case of `C1=[N+](CCCCc2ccccc2)CCCC12CC1(C=[N+](CCCCCc3ccccc3)CC1)CS2` (stereo not drawn) [6-61], the “inhibition of papain activity (FIG. 1)” value [8] is reported as “demonstrated an inhibition of papain activity”.
